# From US20180021277A1, “ANTI-VIRULENCE COMPOSITIONS AND METHODS” (priority 2012, published 2018)
# Numbering of substitutions follows the chain as printed. Several values for one entry are separate records, joined by “and”; a condition that tells them apart may be missing. Equal entries are not always repeated. Entries after “also recorded” stand apart in the source; their conditions may differ.
# Key:
# MRSA USA300 = assay: Emergence of resistance in vitro: daily passaging with hemolysis read-out; type: cell-based, Staphylococcus aureus; conditions: 50 μg/mL, 16 daily passages; listed as F19
# MRSE Q-15 = assay: RT-qPCR of virulence gene transcription in MRSE; conditions: 50 μg/mL F19
# [1] = system: MRSA knockout strain (Lac Δagr); type: cell-based, Staphylococcus aureus; conditions: data not shown
# MRSA = assay: CFU counts of F19 treated vs. untreated MRSA cultures (serial dilution-plating); type: cell-based, Staphylococcus aureus
# Bacillus cereus = assay: Host cell damage assay (LDH leakage), Bacillus cereus; type: cell-based; conditions: THP-1 human monocytes
# Protocol: (§1) Damage to host cells was measured by leakage of lactate dehydrogenase (LDH) with the CytoTox 96 Non-Radioactive Cytotoxicity LDH Assay Promega Kits G178 and G1782 according to manufacturer's instructions.
# (§2) Overnight cultures of the bacterial strain to be tested were spun down, washed, diluted 1:4 and incubated with broth containing 10-50 μg/ml of F19 or containing 2% DMSO as control. The bacteria were cultured at 37° C., in a shaking incubator for 6 h at which time 20 μL of bacterial culture was added to 5×10^4 THP-1 monocytes or J774.2 macrophages in 100 μL of cell media (DMEM for J774.2 cells and RPMI for THP-1 cells) in 96 well plates. Bacteria and macrophage/monocytes were incubated together for 40 min at 37° C. Plates were then spun at 250 g for 4 min and 50 μL of the supernatant was removed to a new 96 well plate. 50 μL of substrate mix+assay buffer were added and incubated at room temperature for 10-30 min depending upon the rate of product formation and stopped by addition of 50 μL stop solution. The colorometric products were read at 490 nm on a Victor 3 plate reader. The data presented are from experiments performed in triplicate.
# (§3) Gram-positive pathogens compromise host cell defense factors by puncturing membranes of immune system cells. To examine F19 efficacy in preventing host cell damage by various pathogens cell lysis assays were carried out by measuring leakage of lactate dehydrogenase (LDH) from cells. F19 indeed inhibits pathogen-mediated lysis of human THP-1 monocytes and mouse macrophage cell line J7774.2 by a series of Gram-positive pathogens, including MRSA, MRSE, Streptococcus pyogenes, Streptococcus pneumoniae and Bacillus cereus in a dose dependent manner (Table 2 for MRSA, Table 4 for other pathogens).
# [2] = system: Strepococcus pneumonia NR13395; assay: Host cell damage assay (LDH leakage), Streptococcus pneumoniae; type: cell-based; conditions: THP-1 human monocytes
# Protocol: as §1
# as §2, with “Overnight cultures of the bacterial strain to be tested were spun down, washed, diluted 1:4 and incubated with broth containing 10-50 μg/ml of F19 or containing 2% DMSO as control.” left out
# as §3
# [3] = biological target: T1, C-terminal DNA-binding domain (AgrA_C) of the Staphylococcus aureus response regulator AgrA (Staphylococcus aureus, UniProt P0A0I7); assay: Microscale thermophoresis binding to AgrA_C; conditions: listed as F19, read-out: Kd / affinity to AgrA_C
# T1 sequence (P0A0I7 143-238): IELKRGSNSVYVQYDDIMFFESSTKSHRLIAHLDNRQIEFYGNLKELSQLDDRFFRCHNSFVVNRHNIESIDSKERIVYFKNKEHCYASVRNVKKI
# Protocol: The AgrA C proteins from S. aureus and S. epidermidis were fluorescently labeled with Alexa Fluor 647 NHS ester and purified on Zeba spin columns. Compound F19 was diluted as a gradient through the capillaries while protein concentrations were maintained constant. Measurements were performed on a Nanotemper Monolith NT.115 apparatus. Lysozyme and known inhibitor N,N′,N″-triacetylchitotriose (Fisher Scientific) were used as controls.
# [4] = biological target: T2, AgrA_C I238A, V235A, V232A and double mutants (Staphylococcus aureus, UniProt P0A0I7, I238A/V235A); assay: Microscale thermophoresis binding to AgrA_C alanine mutants
# T2 construct: made in house
# T2 sequence (P0A0I7 143-238 V235A/I238A): T1 sequence (P0A0I7 143-238) with V93A, I96A
# [5] = biological target: T3, AgrA_C I238A, V235A, V232A and double mutants (Staphylococcus aureus, UniProt P0A0I7, V235A); assay: as above; conditions: data not shown
# T3 construct: made in house
# T3 sequence (P0A0I7 143-238 V235A): T1 sequence (P0A0I7 143-238) with V93A
# [6] = biological target: T4, AgrA_C I238A, V235A, V232A and double mutants (Staphylococcus aureus, UniProt P0A0I7, I238A); assay: as above; conditions: data not shown
# T4 construct: made in house
# T4 sequence (P0A0I7 143-238 I238A): T1 sequence (P0A0I7 143-238) with I96A
# [7] = biological target: T5, AgrA_C I238A, V235A, V232A and double mutants (Staphylococcus aureus, UniProt P0A0I7, V232A); assay: as above
# T5 construct: made in house
# T5 sequence (P0A0I7 143-238 V232A): T1 sequence (P0A0I7 143-238) with V90A
smiles,measurement,setting,value
CCCCCCc1cc(C(=O)COc2ccc(C(C)C)cc2)c(O)cc1O [4f-19],emergence of resistance/tolerance: hemolysis of rabbit blood over daily passages,MRSA USA300,no increase in hemolysis; also recorded: No emergence of resistance
same,inhibition of AtlE transcription,MRSE Q-15,1910 fold
same,inhibition of psm-α transcription,MRSE Q-15,5043 fold
same,synergy with antibiotics in Lac Δagr,[1],synergy is lost
same,"CFU counts, F19 treated vs. untreated cultures",MRSA,identical CFU counts
same,% Damage (LDH Leakage),Bacillus cereus; F19 30 μg/mL,63.7 ± 1.3%
same,% Damage (LDH Leakage),Bacillus cereus; F19 40 μg/mL,52.0 ± 0.1%
same,% Damage (LDH Leakage),Bacillus cereus; F19 50 μg/mL,69.7 ± 1.2%
same,% Damage (LDH Leakage),[2]; F19 1 μg/mL,89.3 ± 1.0%
same,% Damage (LDH Leakage),[2]; F19 5 μg/mL,68.3 ± 1.1%
same,% Damage (LDH Leakage),[2]; F19 10 μg/mL,45.5 ± 1.7%
same,% Damage (LDH Leakage),[2]; F19 20 μg/mL,37.1 ± 0.6%
same,% Damage (LDH Leakage),[2]; F19 50 μg/mL,37.7 ± 0.7%
same,Kd,[3],2.9 µM and 4.5 µM
same,binding to the I238A/V235A double mutant,[4],very weak binding at the background level of the instrument
same,reduction of affinity by V235A mutant,[5],5 fold
same,reduction of affinity by I238A mutant,[6],14 fold
same,affinity to V232A mutant,[7],no loss of affinity
